This is an account of results in article PMC12340070, “A novel modulator of IL-6R prevents inflammation-induced preterm birth and improves newborn outcome” (EMBO Molecular Medicine, 2025).

In series [1] the test system is STAT3. The series is described as follows: STAT3 phosphorylation in HEK-Blue IL-6 cells (immunoblot). As to conditions: for p-STAT3 phospho/total: 10 min, densitometry. It is filed as cell-based, human. Here is the method: (§1) For RT-qPCR experiments, cells were plated in 6-well plates at 70% of confluence and starved overnight. Cells were treated respectively with HSJ633, HSJ630, HSJ631, HSJ634, HSJ635, HSJ639 (1 × 10^−6 M), or TCZ (3.44 μM, based on validated doses (Sahraoui et al, [2014])) for TNF-α expression. For hIL-1, hIL-6, and hTNF-α expression, cells were treated with HSJ633 using concentrations ranging from 10^−11 to 10^−4 M, allowing for equilibrium over 15 min. Cells were then treated with […] of IL-6 for 6 h for both experiments. Cell lysis was performed by adding RIBOzol. Samples were stored at −20 °C until analysis by quantitative PCR. To determine the degree of phosphorylation of different proteins (STAT3, ERK, AKT, and p38), HEK-Blue IL-6 cells were treated with HSJ633 (10^−6 M), TCZ (3.44 uM) or vehicle for 30 min in DMEM only. […] For p38 activation, 25 min of stimulation with IL-6 was required. The wells were charged with radioimmunoprecipitation assay buffer (RIPA) at a concentration of 1×, cOmplete EDTA-free Protease Inhibitor Cocktail final concentration 1×, and phenylmethanesulfonyl fluoride (PMSF) 1 mM. Samples were shaken for 30 min followed by centrifugation at 12,000 RPM at 4 °C for 20 min to harvest the proteins. Proteins were stored at −80 °C until analysis by immunoblotting.
(§2) A total of 15 μL of protein from HEK-Blue IL-6 cells combined with Laemmli-SDS 1× (reducing) was loaded onto SDS-PAGE gel and electro-transferred onto polyvinylidene difluoride membranes. After blocking with BSA 5%-TBST for 1 h, membranes were incubated with the following antibodies (Ab): either mouse anti-phospho-STAT3 (1:1000), rabbit anti-phospho-AKT (1:1000), rabbit anti-phospho-ERK1/2 (1:1000), rabbit anti-phospho-p38 (1:1000), rabbit anti-cytochrome c oxidase 4 (1:5000) or mouse anti-GAPDH (1:20,000, Proteintech). After washing, membranes were incubated for 1 h with secondary antibodies conjugated to HRP (1:3000 Anti-rabbit IgG, HRP-linked Antibody and 1:5000 Goat Anti-Mouse IgG (H + L)-HRP Conjugate). Samples were normalized by membrane stripping (15 g glycine, 1 g SDS, 10 mL Tween-20 at pH 2,2) and incubation with Ab (mouse anti-STAT3 (1:1000), rabbit anti-AKT (1:1000), rabbit anti-ERK1/2 (1:1000) or rabbit anti-p38 (1:1000)). After washing, membranes were incubated for 1 h with secondary antibodies conjugated to HRP (1:3000 Anti-rabbit IgG, HRP-linked antibody and 1:5000 goat anti-mouse IgG (H + L)-HRP Conjugate). Western Lightning Plus ECL or Clarity MAX Western ECL Substrate were used for protein detection using the ChemiDoc MP, and densitometric analysis were completed with ImageLab from Bio-Rad Laboratories.
On the technique in general: A western blot detects proteins with antibodies after separation by electrophoresis.

The test system of series [2] is AKT. Description: AKT phosphorylation in HEK-Blue IL-6 cells (immunoblot). The series is classed as cell-based, human. As to conditions: for p-AKT phospho/total: 10 min, densitometry. The protocol: as §1, §2
The test system of series [3] is ERK1/2. The series is described as follows: ERK1/2 phosphorylation in HEK-Blue IL-6 cells (immunoblot). It is filed as cell-based, human. As to conditions: for p-ERK 1/2 phospho/total: 10 min, densitometry. Here is the method:
as §1, §2

The subject of series [4] is p38. The series is described as follows: p38 phosphorylation in HEK-Blue IL-6 cells (immunoblot). The series is classed as cell-based, human. The settings on record: for p-p38 phospho/total: densitometry. Here is the method: For RT-qPCR experiments, cells were plated in 6-well plates at 70% of confluence and starved overnight. Cells were treated respectively with HSJ633, HSJ630, HSJ631, HSJ634, HSJ635, HSJ639 (1 × 10^−6 M), or TCZ (3.44 μM, based on validated doses (Sahraoui et al, [2014])) for TNF-α expression. For hIL-1, hIL-6, and hTNF-α expression, cells were treated with HSJ633 using concentrations ranging from 10^−11 to 10^−4 M, allowing for equilibrium over 15 min. Cells were then treated with […] of IL-6 for 6 h for both experiments. Cell lysis was performed by adding RIBOzol. Samples were stored at −20 °C until analysis by quantitative PCR. To determine the degree of phosphorylation of different proteins (STAT3, ERK, AKT, and p38), HEK-Blue IL-6 cells were treated with HSJ633 (10^−6 M), TCZ (3.44 uM) or vehicle for 30 min in DMEM only. Human IL-6 (3.86 nM) was added to the medium for 15 min to stimulate IL-6R pathways leading to STAT3, ERK, and AKT activation. For p38 activation, 25 min of stimulation with IL-6 was required. The wells were charged with radioimmunoprecipitation assay buffer (RIPA) at a concentration of 1×, cOmplete EDTA-free Protease Inhibitor Cocktail final concentration 1×, and phenylmethanesulfonyl fluoride (PMSF) 1 mM. Samples were shaken for 30 min followed by centrifugation at 12,000 RPM at 4 °C for 20 min to harvest the proteins. Proteins were stored at −80 °C until analysis by immunoblotting.
as §2

For series [5], the system named is preterm birth in pregnant women. The settings on record: pregnancies prospectively reported following exposure; ref Hoeltzenbein et al, 2016; cited from earlier work. An excerpt:
Complete or partial inhibition of the IL-6 receptor by HSJ633 reduces maternal inflammation and thus prematurity levels.

Series [6] deals with murine IL-6R (Ba/F3-gp130-mIL-6R). As to conditions: ref Lokau et al, 2020; cited from earlier work. An excerpt: HSJ633 has been formulated based on the human IL-6 receptor. […] Both Tocilizumab and MR-16 act as orthosteric antagonists, competitively interfering with IL-6 for receptor occupancy (Lokau et al, [2020]). The ...
[7] abbreviates: HEK-Blue IL-6, IL-6 3.86 nM, HSJ633 1 μM, TCZ 3.44 μM.

For the substance “Tocilizumab: IL-6R orthosteric antagonist monoclonal antibody”, the p-STAT3 phospho/total in series [1] (mean (Moyenne)) stood at 0.57; in series [1] (replicate 2), 0.67; in series [1] (replicate 3), 0.46. In addition, in series [1] (setting [7]), the “STAT3 phosphorylation, result in words” value was “blocked”. Besides, the p-AKT phospho/total in series [2] (average) worked out at 0.06; in series [2] (replicate 2) it was 0.0565; in series [2] (replicate 3) it was 0.06. In series [2] (setting [7]), the “AKT phosphorylation, result in words” value was “blocked”. Further, the figures for the “p-ERK 1/2 phospho/total” value in series [3] (average), in series [3] (replicate 2 (633-2 marked Outliers)) and in series [3] (replicate 3) were 0.11, 0.12 and 0.09, respectively. Also, the “ERK1/2 phosphorylation, result in words” value in series [3] (setting [7]) was “blocked”. In addition, in series [4] (setting [7]), the “p38 phosphorylation, result in words” value is reported as “blocked”. For the same substance, the p-p38 phospho/total in series [4] (average) was 0.66; in series [4] (replicate 1), 0.67; in series [4] (replicate 2) it was 0.65. Moreover, the “increase rate in preterm birth vs general population” value in series [5] is on record as 31.1%. The “proliferation and activation of STAT3 in Ba/F3-gp130-mIL-6R” value in series [6] was “no hindrance on the proliferation and activation of STAT3”.
